How the values were obtained:
[1] = test system: MDA-MB-231 cells; assay: MTT cell viability assay, MDA-MB-231; type: cell-based, human; details: for IC50: 72 h treatment, MTT, read-out: IC50 MDA-MB-231; for Effect on cell viability, MDA-MB-231: all concentrations tested 100 μM – 1.00 mM, 72 h
Experimental: Absorbance readings were measured by a spectrophotometer. Cell viability was normalized to control (vehicle only).

[2] = test system: Fibroblasts (primary culture from healthy human dental pulp); details: fibroblasts, 72 h treatment, MTT
Experimental: MCF-7 cell line and primary culture of connective tissue cells were provided by the Laboratory of Morphology, University of Brasília (Brasília, BR). MDA-MB-231 cells were purchased from Rio de Janeiro Cell Bank (RJCB - Rio de Janeiro, BR). Cell line characterization and authentication was conducted by RJCB using short tandem repeat profiling. Primary culture cells were taken from healthy human dental pulp predominantly consisting of fibroblasts and were used as normal control cells. MCF-7 cells and fibroblasts were grown in complete DMEM and maintained at 37°C with 5% CO2. MDA-MB-231 cells were grown in Leibovitz L15 medium at 37°C without CO2. Culture media were supplemented with 10% fetal bovine serum and 25 μg/mL of gentamicin.
Cytotoxicity was determined using 3-(4,5-dimethylthiazol-2-yl)-2,5-diphenylterazolium bromide (MTT) according to the manufacturer’s instructions. Absorbance readings were measured by a spectrophotometer. Cell viability was normalized to control (vehicle only).

[3] = test system: MCF-7 cells; assay: α-tubulin immunostaining, spindle formation; type: cell-based, human; details: for Monoastral Spindle (%) 24 h / Bipolar Spindle (%) 24 h / Mitotic spindle / microtubule organization (α-tubulin immunostaining): MCF-7, 24 h; for Monoastral Spindle (%) 24 h / Bipolar Spindle (%) 24 h / Bipolar Spindle (%) 48 h / Monoastral Spindle (%) 48 h: n = 300 dividing cells; for Monoastral Spindle (%) 24 h / Mitotic spindle / microtubule organization (α-tubulin immunostaining): 4m 1.0 mM, 4bt 0.8 mM, 4p 0.4 mM, 4bc 1.0 mM, 4x 0.8 mM; for Monoastral Spindle (%) 24 h: monastrol 0.1 mM; for Bipolar Spindle (%) 24 h / Bipolar Spindle (%) 48 h / Monoastral Spindle (%) 48 h: concentrations as E14; for Bipolar Spindle (%) 48 h / Monoastral Spindle (%) 48 h: MCF-7, 48 h
Experimental: Aliquots of 7 × 10^4 MCF-7 cells were seeded onto 12 mm round glass coverslips placed in the base of each well of a 24-well plate. After adhesion, cells were treated for 24 and 48 h with the pre-selected compounds at their maximum non-cytotoxic concentrations to normal cells or incubated with culture medium only for the same duration (negative control). Cells were washed with PBS, fixed with 3.7% formaldehyde, permeabilized with 0.1% Triton X-100 and blocked in PBS supplemented with 1% skimmed milk, 2.5% bovine serum albumin (BSA) and 8% fetal bovine serum (FBS) at room temperature. Cells were incubated overnight with mouse anti-α-tubulin antibody (1:500) at 4°C, followed by incubation with a secondary antibody: Alexa Fluor 488 rabbit anti-mouse IgG (1:400), for 1 hour at 37°C. Nuclei were stained with 300 nM DAPI. The coverslips were mounted with ProLong Gold Antifade and specimens observed under a laser scanning confocal microscope.
Table S1. Quantification of monopolar spindles occurred as a result of treatment with DHPM derivatives. MCF-7 control cells or cells treated for 24 or 48 h with 4m (1 mM), […]
antibody. The percentage of dividing cells showing presence of monoastral and bipolar spinles formation determined (n = 300).
Experimental Group Monoastral Spindle (%) Bipolar Spindle (%)

[4] = test system: MDA-MB-231 cells; assay: CD44+/CD24- expression analysis, MDA-MB-231; type: cell-based, human; details: 24 h; for CD44-/CD24- subpopulation, MDA-MB-231 (mean ± SEM): 4m 1.0 mM, 4bt 0.8 mM, 4p 0.4 mM, 4bc 1.0 mM, 4x 0.8 mM, monastrol 1.0 mM; for CD44-/CD24+ subpopulation, MDA-MB-231 (mean ± SEM) / CD44+/CD24+ subpopulation, MDA-MB-231 (mean ± SEM) / CD44+/CD24- subpopulation, MDA-MB-231 (mean ± SEM): concentrations as E32; for CD44+/CD24+ subpopulation, MDA-MB-231 (mean ± SEM): control 1.507 ± 0.47; for CD44+/CD24- subpopulation, MDA-MB-231 (mean ± SEM): untreated control 98.45 ± 0.47
Experimental: For proliferation assays, cells were treated with IC50 concentrations of each compound. Adherent and floating cells were harvested at the same tube and pelleted by centrifugation at 300 g for 5 minutes and stained. Data acquisition of these two fractions put together was performed on a FACSCalibur flow cytometer using CellQuest software and analysed using the FloJo Software. Expression level of CD44 and CD24 in treated and control MCF-7 or MDA-MB-231 cells was measured after 24 h of treatment.

[5] = test system: MCF-7 cells; assay: Morphological alterations under inverted light microscope, MCF-7; type: cell-based, human; details: 72 h, maximum non-cytotoxic concentration to normal cells
Experimental: Figure 2 DHPM derivatives cause severe morphological alterations on breast cancer cells. MCF-7 and MDA-MB-231 cells were treated with the maximum non-cytotoxic concentration to normal cells for 72 h and morphological alterations analyzed under an inverted light microscope. Cells with elongated morphology, adherent to the surface and normal size are shown by arrows. Cells with size reduction, absence of focal adhesion points, rounded morphology and detached from the surface where they had been seeded are shown by arrowheads.

[6] = test system: MCF-7 cells; assay: CFSE proliferation assay, MCF-7; type: cell-based, human; details: 72 h, IC50 concentration of each compound
Experimental: (§1) For proliferation assays, cells were treated with IC50 concentrations of each compound. Adherent and floating cells were harvested at the same tube and pelleted by centrifugation at 300 g for 5 minutes and stained. Data acquisition of these two fractions put together was performed on a FACSCalibur flow cytometer using CellQuest software and analysed using the FloJo Software. […] After adhesion, cells were treated with DHPMs or maintained in culture medium only (control) for 72 h. The percentage of proliferative cells was calculated based on the CFSE fluorescence profile analysis of the tested samples compared to that of the fixed undivided control cells (treated with 10 μM of colchicine) using the FlowJo software.

[7] = test system: MDA-MB-231 cells; assay: CFSE proliferation assay, MDA-MB-231; type: cell-based, human; details: 72 h, IC50 concentration of each compound
Experimental: as §1

[8] = test system: HUVEC cells; assay: HUVEC tube formation assay; type: cell-based, human; details: 11 h; 30 μM, IC50 or 300 μM, mainly 300 μM
Experimental: The anti-angiogenic potential of DHPMs was tested using an in vitro Angiogenesis Assay Kit according to the manufacturer’s instructions. […] These plates were incubated for 11 hours at 37°C, in 5% CO2. Wells were subsequently photographed using an inverted light microscope at 20x magnification and tube formation analyzed. Seven fields per group of 3 independent experiments were quantified by pattern recognition according to manufacturer’s instructions.

[9] = test system: MCF-7 cells; assay: DAPI staining and transmission electron microscopy analysis; type: cell-based, human; details: MCF-7, 4p 0.4 mM, 24 h (DAPI) or 48 h (TEM)
Experimental: Aliquots of 8 × 10^5 MCF-7 cells were seeded in 12-well plates and ultra-structural analysis performed on controls or after 48 h of treatment with 4p (0.4 mM). Cells were washed twice with PBS and fixed overnight with glutaraldehyde (2.5%) at 4°C. Cells were subsequently washed with 0.1 M sodium cacodylate buffer (pH 7.2) and post-fixed in 1% osmium tetroxide and 0.8% potassium ferricyanide (10 mM CaCl2 in 0.2 M sodium cacodylate buffer). Samples were washed twice with 0.1 M sodium cacodylate buffer (pH 7.2) and in-block staining was performed for 16 h with 0.5% uranyl acetate at 4°C. Cells were dehydrated in a graded acetone series (50-100%) and embedded in Spurr resin.
Cells were analyzed under a laser scanning confocal microscope. B, MCF-7 cells control or treated with 4p (0.4 mM) for 24 h had their nucleus stained with DAPI (left panels) or were processed and analyzed by Transmission Electron Microscopy after exposure to 4p (0.4 mM) for 48 h (right panels).

Structure (SMILES) | IC50 [1] | Effect on cell viability, MDA-MB-231 [1] | Maximum non-cytotoxic concentration to normal cells [2] | Monoastral Spindle (%) 24 h [3] | Bipolar Spindle (%) 24 h [3] | Mitotic spindle / microtubule organization (α-tubulin immunostaining) [3] | Bipolar Spindle (%) 48 h [3] | Monoastral Spindle (%) 48 h [3] | CD44-/CD24- subpopulation, MDA-MB-231 (mean ± SEM) [4] | CD44-/CD24+ subpopulation, MDA-MB-231 (mean ± SEM) [4] | CD44+/CD24+ subpopulation, MDA-MB-231 (mean ± SEM) [4] | CD44+/CD24- subpopulation, MDA-MB-231 (mean ± SEM) [4] | Morphological alterations, MCF-7 [5] | Inhibition of cell proliferation, MCF-7 [6] | Inhibition of cell proliferation, MDA-MB-231 [7] | HUVEC tube formation (pattern recognition / morphology) [8] | Cell phenotype by DAPI staining and TEM [9]
CC(=O)C1=C(C)NC(=O)NC1c1ccccc1[N+](=O)[O-] (stereo not drawn) [Compound 4x] | 237 µM | significant decrease in cell viability | 0.8 mM | 50.80% | 49.20% | caused monoastral spindle formation | 12.01% | 87.99% | 0.01 ± 0.003% | 0.020 ± 0.0200% | 6.08 ± 2.10% | 93.88 ± 2.12% | no significant alterations | – | – | – | –
CCOC(=O)C1=C(C)NC(=S)NC1c1ccccc1O (stereo not drawn) [Compound 4p] | 68.4 µM | significant decrease in cell viability | 0.4 mM | 0% | 0% | disruption of the microtubules | 0% | 0% | 0.02 ± 0.009% | 0.003 ± 0.003% | 5.507 ± 1.13% | 94.45 ± 1.13% | produced the same results | Approximately 50% | Approximately 50% | more pronounced anti-angiogenic morphological aspect | mitotic catastrophe phenotype

Source: PMC4411898, “Impact of kinesin Eg5 inhibition by 3,4-dihydropyrimidin-2(1H)-one derivatives on various breast cancer cell features” (BMC Cancer, 2015)
